From patent publication US6645918B1, “N-([1,2,4]triazoloazinyl)thiophenesulfonamide compounds and their use as herbicides” (Dow AgroSciences LLC, priority 2000, dated 2003)

How the values were obtained:
Format in all cases: in vivo
[1] = test system: velvetleaf (Abutilion theophrasti); assay: Postemergence herbicidal activity, velvetleaf; settings: foliar spray, visual after 2 weeks, 0 no injury, 100 complete kill
Description: (§1) Seeds of the desired test plant species were planted in Grace-Sierra MetroMix® 306 planting mixture, which typically has a pH of 6.0 to 6.8 and an organic matter content of about 30 percent, in plastic pots with a surface area of 64 square centimeters. When required to ensure good germination and healthy plants, a fungicide treatment and/or other chemical or physical treatment was applied. The plants were grown for 7-21 days in a greenhouse with an approximately 15 hr photoperiod which was maintained at about 23-29° C. during the day and 22-28° C. during the night. Nutrients and water were added on a regular basis and supplemental lighting was provided with overhead metal halide 1000 Watt lamps as necessary. The plants were employed for testing when they reached the first or second true leaf stage. A weighed amount of each test compound, determined by the highest rate to be tested, was placed in a 20 mL glass vial and was dissolved in 4 mL of a 97:3 v/v (volume/volume) mixture of acetone and dimethyl sulfoxide to obtain concentrated stock solutions. […] The concentrated stock solutions obtained were diluted with an aqueous mixture containing acetone, water, iso-propyl alcohol, dimethyl sulfoxide, Atplus 411F crop oil concentrate, and Triton X-155 surfactant (methylenebisdiamyl phenoxy polyethoxy ethanol) in a 48.5:39:10:1.5:1.0:0.02 v/v ratio to obtain spray solutions of known concentration. The solutions containing the highest concentration to be tested were prepared by diluting 2 mL aliquots of the stock solution with 13 mL of the mixture and lower concentrations were prepared by dilution of appropriate smaller portions of the stock solution. Approximately 1.5 mL aliquots of each solution of known concentration were sprayed evenly onto each of the test plant pots using a DeVilbiss atomizer driven by compressed air pressure of 2 to 4 psi (140 to 280 kilopascals) to obtain thorough coverage of each plant. Control plants were sprayed in the same manner with the aqueous mixture. In this test an application rate of 1 ppm results in the application of approximately 1 g/ha. The treated plants and control plants were placed in a greenhouse as described above and watered by sub-irrigation to prevent wash-off of the test compounds. After 2 weeks the condition of the test plants as compared with that of the untreated plants was determined visually and scored on a scale of 0 to 100 percent where 0 corresponds to no injury and 100 corresponds to complete kill.

[2] = test system: giant foxtail (Setaria faberi); assay: Postemergence herbicidal activity, giant foxtail; settings: foliar spray, visual after 2 weeks, 0 no injury, 100 complete kill
Description: as §1

[3] = test system: cocklebur (Xanthium strumarium); assay: Postemergence herbicidal activity, cocklebur; settings: foliar spray, visual after 2 weeks, 0 no injury, 100 complete kill
Description: as §1

[4] = test system: cocklebur (Xanthium strumarium); assay: Preemergence herbicidal activity, cocklebur; settings: soil spray, visual after 3 weeks, 0 no injury, 100 complete kill or no germination
Description: (§2) The soil matrix was contained in plastic pots with a surface area of 161 square centimeters. When required to ensure good germination and healthy plants, a fungicide treatment and/or other chemical or physical treatment was applied. A weighed amount, determined by the highest rate to be tested, of each test compound was placed in a 20 mL glass vial and was dissolved in 8 mL of a 97:3 v/v (volume/volume) mixture of acetone and dimethyl sulfoxide to obtain concentrated stock solutions. […] The stock solutions obtained were diluted with a 99.9:0.1 mixture of water and Tween® 155 surfactant (ethoxylated sorbitan fatty acid ester) to obtain application solutions of known concentration. The solutions containing the highest concentration to be tested were prepared by diluting 4 mL aliquots of the stock solution with 8.5 mL of the mixture and lower concentrations were prepared by dilution of appropriate smaller portions of the stock solution. A 2.5 mL aliquot of each solution of known concentration was sprayed evenly onto the soil of each seeded pot using a Cornwall 5.0 mL glass syringe fitted with a TeeJet TN-3 hollow cone nozzle to obtain thorough coverage of the soil in each pot. Control pots were sprayed in the same manner with the aqueous mixture. A highest application rate of 4.48 kg/ha is achieved when 50 mg of test compound is employed. The treated pots and control pots were placed in a greenhouse with an approximately 15 hr photoperiod which was maintained at about 23-29° C. during the day and 22-28° C. during the night. Nutrients and water were added on a regular basis and supplemental lighting was provided with overhead metal halide 1000 Watt lamps as necessary. The water was added by top-irrigation. After 3 weeks the condition of the test plants that germinated and grew as compared with that of the untreated plants that germinated and grew was determined visually and scored on a scale of 0 to 100 percent where 0 corresponds to no injury and 100 corresponds to complete kill or no germination.

[5] = test system: crabgrass (Digitaria sanguinalis); assay: Preemergence herbicidal activity, crabgrass; settings: soil spray, visual after 3 weeks, 0 no injury, 100 complete kill or no germination
Description: as §2

[6] = test system: morningglory (Ipomoea hederacea); assay: Postemergence herbicidal activity, morningglory; settings: foliar spray, visual after 2 weeks, 0 no injury, 100 complete kill
Description: as §1

wild oats (Avena fatua) [7] = assay: Postemergence herbicidal activity, wild oats; settings: foliar spray, visual after 2 weeks, 0 no injury, 100 complete kill
Description: as §1

[8] = test system: pigweed (Amaranthus retroflexus); assay: Postemergence herbicidal activity, pigweed; settings: foliar spray, visual after 2 weeks, 0 no injury, 100 complete kill
Description: as §1

[9] = test system: wild buckwheat (Polygonum convolvulus); assay: Postemergence herbicidal activity, wild buckwheat; settings: foliar spray, visual after 2 weeks, 0 no injury, 100 complete kill
Description: as §1

[10] = test system: barnyardgrass (Echinochloa crus-galli); assay: Preemergence herbicidal activity, barnyardgrass; settings: soil spray, visual after 3 weeks, 0 no injury, 100 complete kill or no germination
Description: as §2

[11] = test system: velvetleaf (Abutilion theophrasti); assay: Preemergence herbicidal activity, velvetleaf; settings: soil spray, visual after 3 weeks, 0 no injury, 100 complete kill or no germination
Description: as §2

[12] = test system: pigweed (Amaranthus retroflexus); assay: Preemergence herbicidal activity, pigweed; settings: soil spray, visual after 3 weeks, 0 no injury, 100 complete kill or no germination
Description: as §2

[13] = test system: Rox orange sorghum (Sorghum bicolor); assay: Postemergence herbicidal activity, Rox orange sorghum; settings: foliar spray, visual after 2 weeks, 0 no injury, 100 complete kill
Description: as §1

[14] = test system: morningglory (Ipomoea hederacea); assay: Preemergence herbicidal activity, morningglory; settings: soil spray, visual after 3 weeks, 0 no injury, 100 complete kill or no germination
Description: as §2

[15] = test system: chickweed (Stellaria media); assay: Postemergence herbicidal activity, chickweed; settings: foliar spray, visual after 2 weeks, 0 no injury, 100 complete kill
Description: as §1

[16] = test system: lambsquarters (Chenopodium album); assay: Preemergence herbicidal activity, lambsquarters; settings: soil spray, visual after 3 weeks, 0 no injury, 100 complete kill or no germination
Description: as §2

[17] = test system: blackgrass (Alopecurus myosuroides); assay: Preemergence herbicidal activity, blackgrass; settings: soil spray, visual after 3 weeks, 0 no injury, 100 complete kill or no germination
Description: as §2

[18] = test system: wild poinsettia (Euphorbia heterophylla); assay: Preemergence herbicidal activity, wild poinsettia; settings: soil spray, visual after 3 weeks, 0 no injury, 100 complete kill or no germination
Description: as §2

[19] = test system: Rox orange sorghum (Sorghum bicolor); assay: Preemergence herbicidal activity, Rox orange sorghum; settings: soil spray, visual after 3 weeks, 0 no injury, 100 complete kill or no germination
Description: as §2

viola (Viola tricolor) = assay: Postemergence herbicidal activity, viola; settings: foliar spray, visual after 2 weeks, 0 no injury, 100 complete kill
Description: as §1

[20] = test system: giant foxtail (Setaria faberi); assay: Preemergence herbicidal activity, giant foxtail; settings: soil spray, visual after 3 weeks, 0 no injury, 100 complete kill or no germination
Description: as §2

[21] = test system: lambsquarters (Chenopodium album); assay: Postemergence herbicidal activity, lambsquarters; settings: foliar spray, visual after 2 weeks, 0 no injury, 100 complete kill
Description: as §1

[22] = test system: blackgrass (Alopecurus myosuroides); assay: Postemergence herbicidal activity, blackgrass; settings: foliar spray, visual after 2 weeks, 0 no injury, 100 complete kill
Description: as §1

wild oats (Avena fatua) [23] = assay: Preemergence herbicidal activity, wild oats; settings: soil spray, visual after 3 weeks, 0 no injury, 100 complete kill or no germination
Description: as §2

CCOc1cscc1S(=O)(=O)Nc1nc2nc(OC)cc(OC)n2n1 [Compound 12]
ABUTH postemergence injury score 0-100 ([1]; 15.6 ppm): 95% | SETFA postemergence injury score 0-100 ([2]; 15.6 ppm): 95% | XANST postemergence injury score 0-100 ([3]; 15.6 ppm): 90% | XANST preemergence injury score 0-100 ([4]; 8.8 g/Ha): 90% | DIGSA preemergence injury score 0-100 ([5]; 8.8 g/Ha): 100% | IPOHE postemergence injury score 0-100 ([6]; 15.6 ppm): 95% | AVEFA postemergence injury score 0-100 (wild oats (Avena fatua) [7]; 15.6 ppm): 85% | AMARE postemergence injury score 0-100 ([8]; 15.6 ppm): 95% | POLCO postemergence injury score 0-100 ([9]; 15.6 ppm): 85% | ECHCG preemergence injury score 0-100 ([10]; 8.8 g/Ha): 100% | ABUTH preemergence injury score 0-100 ([11]; 8.8 g/Ha): 90% | AMARE preemergence injury score 0-100 ([12]; 8.8 g/Ha): 100% | SORBI postemergence injury score 0-100 ([13]; 15.6 ppm): 95% | IPOHE preemergence injury score 0-100 ([14]; 8.8 g/Ha): 80% | STEME postemergence injury score 0-100 ([15]; 15.6 ppm): 95% | CHEAL preemergence injury score 0-100 ([16]; 8.8 g/Ha): 100% | ALOMY preemergence injury score 0-100 ([17]; 8.8 g/Ha): 100% | EPHHL preemergence injury score 0-100 ([18]; 8.8 g/Ha): 95% | SORBI preemergence injury score 0-100 ([19]; 8.8 g/Ha): 100% | VIOTR postemergence injury score 0-100 (viola (Viola tricolor); 15.6 ppm): 80% | SETFA preemergence injury score 0-100 ([20]; 8.8 g/Ha): 100% | CHEAL postemergence injury score 0-100 ([21]; 15.6 ppm): 90% | ALOMY postemergence injury score 0-100 ([22]; 15.6 ppm): 60% | AVEFA preemergence injury score 0-100 (wild oats (Avena fatua) [23]; 8.8 g/Ha): 100%

COc1cscc1S(=O)(=O)Nc1nc2c(Cl)cnc(OC)n2n1 [Compound 14]
ABUTH postemergence injury score 0-100 ([1]; 31.3 ppm): 90% | SETFA postemergence injury score 0-100 ([2]; 31.3 ppm): 95% | XANST postemergence injury score 0-100 ([3]; 31.3 ppm): 95% | XANST preemergence injury score 0-100 ([4]; 35 g/Ha): 60% | DIGSA preemergence injury score 0-100 ([5]; 35 g/Ha): 100% | IPOHE postemergence injury score 0-100 ([6]; 31.3 ppm): 80% | AVEFA postemergence injury score 0-100 (wild oats (Avena fatua) [7]; 31.3 ppm): 80% | AMARE postemergence injury score 0-100 ([8]; 31.3 ppm): 95% | POLCO postemergence injury score 0-100 ([9]; 31.3 ppm): 95% | ECHCG preemergence injury score 0-100 ([10]; 35 g/Ha): 98% | ABUTH preemergence injury score 0-100 ([11]; 35 g/Ha): 80% | AMARE preemergence injury score 0-100 ([12]; 35 g/Ha): 80% | SORBI postemergence injury score 0-100 ([13]; 31.3 ppm): 95% | IPOHE preemergence injury score 0-100 ([14]; 35 g/Ha): 60% | STEME postemergence injury score 0-100 ([15]; 31.3 ppm): 100% | CHEAL preemergence injury score 0-100 ([16]; 35 g/Ha): 98% | ALOMY preemergence injury score 0-100 ([17]; 35 g/Ha): 100% | EPHHL preemergence injury score 0-100 ([18]; 35 g/Ha): 30% | SORBI preemergence injury score 0-100 ([19]; 35 g/Ha): 100% | VIOTR postemergence injury score 0-100 (viola (Viola tricolor); 31.3 ppm): 75% | SETFA preemergence injury score 0-100 ([20]; 35 g/Ha): 100% | CHEAL postemergence injury score 0-100 ([21]; 31.3 ppm): 100% | ALOMY postemergence injury score 0-100 ([22]; 31.3 ppm): 80% | AVEFA preemergence injury score 0-100 (wild oats (Avena fatua) [23]; 35 g/Ha): 100%
